The values below come from US7893046B2, “Therapeutic or prophylactic agent for leukemia” (Toray Industries, Inc., priority 2006, dated 2011).

Common to all, as to type: in vivo
Assay [1] concerns mouse leukemia cell line 1629B. As to the kind of experiment: Mouse leukemia model, survival rate and leukocytes in peripheral blood, dosing from the time of 1629B cell transfer. As to conditions: SCID mice, 100 mg/kg orally every day from 1629B transfer. On the procedure: This method was carried out in accordance with the literature “Cancer Cell., 4, 55-65 (2003)”. Cells of mouse leukemia cell line 1629B were transferred into 8- or 9-week-old female SCID mice (CLEA Japan, Inc.) to develop leukemia. The compounds described in Examples 80, 81 and 83 were orally administered, respectively, at a dose of 100 mg/kg every day from the time when 1629B cells were transferred.

The subject of assay [2] is leukemia cells (1629B cells) in bone marrow. The assay is described as follows: Proliferation of leukemia cells in bone marrow in mouse leukemia model (PCR of neomycin resistance gene). As for the experimental part: Neomycin resistance gene, a marker gene for 1629B cells, was used as an index of leukemia cells (1629B cells) in bone marrow and the gene level was determined, thereby detecting the number of leukemia cells in bone marrow.
For the amplification of neomycin resistance gene, primers were prepared and PCR (reaction condition: 32 cycles of 95° C. for 30 sec, 60° C. for 30 sec, and 72° C. for 1 min) was performed using DNA extracted from bone marrow cells as a template. After the reaction, the image of PCR bands was analyzed using Gel-Pro Analyzer (MediaCybernetics).

Assay [3] deals with mouse leukemia cell line 1629B. As to the kind of experiment: Mouse leukemia model, survival time and leukocytes in peripheral blood, dosing from Day 21 after transfer of 1629B cells. As to conditions: SCID mice, 100 mg/kg orally every day from Day 21 after transfer; for reduction ratio of increase in the number of leukocytes in peripheral blood: Day 35 after the transfer; for survival time prolonged to (Day after the transfer of leukemia cells): untreated mice died on Day 36. On the procedure: This method was carried out in accordance with the literature “Cancer Cell., 4, 55-65 (2003)”.
Cells of mouse leukemia cell line 1629B were transferred into 8-week-old female SCID mice (CLEA Japan, Inc.) to develop leukemia. The compounds described in Examples 77, 78 and 84 were orally administered, respectively, at a dose of 100 mg/kg every day from Day 21 after the transfer of 1629B cells.

The mark [4] stands for this setting: leukemia mice of Example 88 (100 mg/kg orally from the time of transfer).
Setting [5] is: leukemia mice of Example 89 (100 mg/kg orally from Day 21 after transfer).
[6] abbreviates: Day 43 after the transfer of leukemia cells.

Regarding `CN(c1ccc(/C=C/C[C@H](NC(=O)c2c(Cl)cccc2Cl)C(=O)[O-])cc1)c1ncccn1.[Na+]` [Example 81, (S,E)-2-(2,6-Dichlorobenzamido)-5-[4-(methyl-pyrimidin-2-ylamino)phenyl]pent-4-enoic Acid Sodium Salt], the “reduction ratio of increase in the number of leukocytes in peripheral blood” value in assay [1] (Day 51 after the transfer) was 60.8%. For the same molecule, the survival rate in assay [1] (Day 51 after the transfer of leukemia cells) is 62.5%. For the same molecule, the “reduction ratio of increase in the number of leukemia cells in bone marrow” value (“reduction ratio of increase … in bone marrow” for short) in assay [2] (setting [4]) was found to be 50.8%.
Consider `COC1(c2ccc(/C=C/C[C@H](NC(=O)c3c(Cl)cccc3Cl)C(=O)[O-])cc2)CCOCC1.[Na+]` [Example 78, (S,E)-2-(2,6-Dichlorobenzamido)-5-[4-(4-methoxytetrahydropyran-4-yl)-phenyl]pent-4-enoic Acid Sodium Salt], for which, in assay [3], the “reduction ratio of increase in the number of leukocytes in peripheral blood” value amounted to 41.0% and the “survival time prolonged to (Day after the transfer of leukemia cells)” value (shortened to “survival time prolonged”) stood at 43 days. For the same molecule, the “reduction ratio of increase … in bone marrow” value in assay [2] (setting [5]) came out at 41.7%.
For `CN(c1ccc(/C=C/C[C@H](NC(=O)c2c(Cl)cccc2Cl)C(=O)O)cc1)c1ncccn1` [Example 80, (S,E)-2-(2,6-Dichlorobenzamido)-5-[4-(methyl-pyrimidin-2-ylamino)phenyl]pent-4-enoic Acid], the “reduction ratio of increase in the number of leukocytes in peripheral blood” value in assay [1] (Day 43 after the transfer) worked out at 61.6%. For the same molecule, the survival rate in assay [1] (setting [6]) is given as 75.0%. For the same molecule, the “reduction ratio of increase … in bone marrow” value in assay [2] (setting [4]) is 45.9%.
For `CC(C)N(c1ccc(/C=C/C[C@H](NC(=O)c2c(Cl)cccc2Cl)C(=O)O)cc1)c1ncccn1` [Example 83, (S,E)-2-(2,6-Dichlorobenzamido)-5-[4-(isopropyl-pyrimidin-2-ylamino)phenyl]pent-4-enoic Acid] the same measures were 53.1%, 75.0% and 46.1%.
With `COC1(c2ccc(/C=C/C[C@H](NC(=O)c3c(Cl)cccc3Cl)C(=O)O)cc2)CCOCC1` [Example 77, (S,E)-2-(2,6-Dichlorobenzamido)-5-[4-(4-methoxytetrahydropyran-4-yl)-phenyl]pent-4-enoic Acid], in assay [3], the “reduction ratio of increase in the number of leukocytes in peripheral blood” value is on record as 41.2% and the “survival time prolonged” value was 43 days. For the same molecule, in assay [2] (setting [5]), the “reduction ratio of increase … in bone marrow” value is 49.3%.
Take `CC(C)N(c1ccc(/C=C/C[C@H](NC(=O)c2c(Cl)cccc2Cl)C(=O)[O-])cc1)c1ncccn1.[Na+]` [Example 84, (S,E)-2-(2,6-Dichlorobenzamido)-5-[4-(isopropyl-pyrimidin-2-ylamino)phenyl]pent-4-enoic Acid Sodium Salt]: in assay [3], the “reduction ratio of increase in the number of leukocytes in peripheral blood” value was 49.8% and the “survival time prolonged” value turned out to be 43 days. Besides, the “reduction ratio of increase … in bone marrow” value in assay [2] (setting [5]) is 45.6%.
